{"source": "patent US7993855B2", "about": "“Use of additives to lower the rate of a binding reaction” (Aokin AG, priority 2006, dated 2011)", "key": {"[1]": {"system": "anti-thyroxine", "assay": "Fluorescence polarization kinetic assay, F-thyroxine/anti-thyroxine system", "assay_type": "binding", "conditions": "PBS with 4.75% 2-propanol, BSA 0.1 μM, Anti-Thyroxine 1:300"}, "[2]": {"system": "anti-thyroxine", "assay": "Fluorescence polarization kinetic assay, F-thyroxine/anti-thyroxine system", "assay_type": "binding", "conditions": "for Rate of the antibody reaction with increasing concentrations of additive: PBS with 5% 2-propanol, BSA 0.1 μM, Fluorescein-Thyroxine 1 nM, Anti-Thyroxine 1:300", "experimental": "An initial stock solution of anti-thyroxine sera was prepared. In particular, 1 ml of polyclonal anti-thyroxine sera containing 10 mg/ml IgG (Sigma) was diluted 1:5 in PBS buffer, pH 7.5. The final concentration of IgG in the stock solution was about 2 mg/ml.\nAn initial stock solution of fluorescein-labeled analyte (F-thyroxine) was prepared. […] First, 5 mg (4×10^−6 moles) of F-thyroxine was diluted to 10 ml in PBS to get a 4.1×10^−4 M solution of F-thyroxine. This solution was then further diluted 100-fold in PBS. The final concentration of F-thyroxine in the stock solution was about 4.1×10^−6 M.\nAll steps are performed at ambient temperature. The total final reaction volume after all additions is 3030 μl. • 1. Add 20 μl or 0 μl (control) anti-sera stock solution to about 2980 μl of Buffer 1. • 2. Pipette the diluted anti-sera solution prepared in step 1 up and down from 1 to 10 seconds to thoroughly mix. • 3. Add between 0 and 20 μl thyroxine stock solution (e.g., 0, 0.5, 2.0, 5.0 and 20 μl) to the mixed anti-sera from step 2. • 4. Pipette the mixture formed in step 3 up and down for 1 to 10 seconds and then incubate for 30 to 300 seconds. • 5. Add 10 μl of the Fluorescein-labeled thyroxine stock solution to the incubated mixture from step 4. • 6. Pipette the mixture formed in step 5 up and down for 1 to 10 seconds and begin measuring polarization (P), Polarized Fluorescence Intensity Difference (V−H) or quenching (V+H total intensity) versus time for between 10 and 7200 seconds after end of mixing in a direct readout polarometer or between 0.1 and 7200 seconds after end of mixing with a stopped-flow polarometer. • 7. Determine the rate of reaction (initial rates) and plot versus amount of thyroxine stock solution added in step 3 to produce a standard curve. • 8. Against a standard curve, an unknown amount of thyroxine can be measured by comparison of initial rate measurement (speed of reaction) of unknown with the standard curve. […]"}, "[3]": {"system": "serum components", "assay": "Initial non-specific binding between F-thyroxine and serum components (P at t=0)", "conditions": "experiments 6-3 through 6-7: serum, increasing sodium benzoate; PBS with 10% 2-propanol", "experimental": "The buffer and stock solutions described in Example 1 and the measurement methodology described in Example 2 were used.\n• Fluorescein-Thyroxine (1 nM) • Anti-Thyroxine (1:300 dilution) • PBS with 10% 2-propanol • Benzoate in different concentrations • At t=0 s antibody was pipetted into the cuvette. • A 3 ml cuvette was used, the total volume in the cuvette was 2 ml. A small magnetic stirrer was used for mixing\nIn example 6, the reactions between F-Thyroxine and Anti-Thyroxine, which were carried out in the presence of serum under different reaction conditions, are compared (FIG. 4). There are seven different amounts of sodium benzoate, between 0 and 1.0 Molar in the cuvette. The reaction was performed in a phosphate buffered saline buffer containing 10% 2-propanol. The table in FIG. 4 lists the two important parameters."}, "[4]": {"system": "anti-thyroxine", "assay": "Fluorescence polarization kinetic assay, rhodamine-labeled thyroxine (ROX-T4)/anti-thyroxine system", "assay_type": "binding", "conditions": "Rox-Thyroxine 1.5 nM, Anti-Thyroxine 1:300, PBS with 10% 2-propanol, serum 1:500", "experimental": "The protocol used is described below. […] Use clean glassware, washed with isopropanol. • 2. Make a 0.5 M solution of sodium benzoate. • 3. […] This will be named BUFFER. • 4. […] The absorbance spectrum is measured using a UV-VIS spectrophotometer, 400 nm to 800 nm. This spectrum is used to define the absorbance of the background as zero and to control that it is actually zero. • 6. […] Measure the absorbance UV-VIS, 400 nm to 800 nm. […] Using a rotating polarometer with a 75 watt Xenon short-arc lamp. The rotating polarizer has three channels: Polarization (P), Total Intensity (V+H), and V−H. • 8. […] Measure P, V+H and V−H after short mixing and 30 second equilibration. […] Add 10 μl. Antibody solution (anti-thyroxine in PBS, dilution unknown, probably 5 mg in 1000 μl PBS and further diluted 1:10 in PBS). New volume is 3017 μl. Measure P, V+H and V−H after short mixing."}, "[5]": {"system": "human sera", "assay": "Non-specific binding of F-thyroxine in presence of human sera", "conditions": "Buffer 2 (1.0 M sodium benzoate), 50 μl human sera, V−H over 10-600 s", "experimental": "With reference to FIG. 2, experiments were performed to determine the effects of an additive on specific and non-specific binding. The additive used in the present example was sodium benzoate. The materials described in Example 1 and the measurement methodology described in Example 2 were used. In particular, 50 μl of human sera was added to 3000 μl of Buffer 2 or PBS at pH 7.5 (no additive control) and thoroughly mixed by pipetting for 1 to 10 seconds. To this was added 0 μl of unlabeled thyroxine and 0 μl, 20 μl or 50 μl of anti-sera stock solution. The mixture was thoroughly mixed by pipetting for 1 to 10 seconds. Then, 5 μl of the fluorescein-labeled thyroxine stock solution was added. This was followed by mixing for 1 to 10 seconds by pipetting. Then, d(V−H)/dt measurements were made versus time for between 10 and 600 seconds. This protocol was followed for Experiments 6-9 in Table 2."}}, "note": "Counter-ions that a name gives are not always drawn.", "data": [{"smiles": "O=C1CCC(=O)N1O", "note": "[N-hydroxysuccinimide]", "values": [{"measurement": "Rate of the antibody reaction with increasing concentrations of additive", "setting": "[1]; Fluorescein-Thyroxine 1.5 nM", "value": "substantially slowed"}]}, {"smiles": "N=C(N)N", "note": "[guanidine hydrochloride]", "values": [{"measurement": "Rate of the antibody reaction with increasing concentrations of additive", "setting": "[2]", "value": "substantially slowed"}]}, {"smiles": "O=C([O-])c1ccccc1.[K+]", "note": "[potassium benzoate]", "values": [{"measurement": "Rate of the antibody reaction with increasing concentrations of additive", "setting": "[1]; Fluorescein-Thyroxine 1 nM", "value": "substantially slowed"}]}, {"smiles": "O=C([O-])c1ccccc1.[Na+]", "note": "[sodium benzoate]", "values": [{"measurement": "Polarization value before addition of antibody (t=0)", "setting": "[3]", "value": 100, "unit": "mP"}, {"measurement": "Rate of the reaction with increasing concentrations of additive", "setting": "[4]", "value": "substantially slowed"}, {"measurement": "Reaction between F-thyroxine and its specific antibody capable of being followed (kinetic curve)", "setting": "[2]; Buffer 1 (0.5 M sodium benzoate in PBS, pH 7.5) versus PBS", "value": "only capable of being followed when the reaction was performed in the presence of an additive"}, {"measurement": "Effect of additive on specific binding", "setting": "[2]; Buffer 2 (1.0 M sodium benzoate), 50 μl human sera, 0/20/50 μl antiserum, V−H over 10-600 s", "value": "does not inhibit specific binding"}, {"measurement": "Rate of the antibody reaction with increasing concentrations of additive", "setting": "[2]", "value": "substantially slowed"}, {"measurement": "Reaction rate relative to its value from zero additive agent", "setting": "[2]; experiments 6-3 through 6-7: serum, increasing sodium benzoate, PBS with 10% 2-propanol", "value": "about 30%"}, {"measurement": "Effect of additive on non-specific binding", "setting": "[5]", "value": "inhibits non-specific binding"}]}, {"smiles": "[Cl-].[Na+]", "note": "[sodium chloride]", "values": [{"measurement": "Rate of the antibody reaction with increasing concentrations of additive", "setting": "[1]; Fluorescein-Thyroxine 1.5 nM", "value": "not substantially slowed"}]}, {"smiles": "O=C([O-])CCl.[Na+]", "note": "[sodium chloroacetate]", "values": [{"measurement": "Rate of the antibody reaction with increasing concentrations of additive", "setting": "[1]; Fluorescein-Thyroxine 1 nM", "value": "substantially slowed"}]}, {"smiles": "O=C([O-])C(Cl)Cl.[Na+]", "note": "[sodium dichloroacetate]", "values": [{"measurement": "Rate of the antibody reaction with increasing concentrations of additive", "setting": "[1]; Fluorescein-Thyroxine 1 nM", "value": "substantially slowed"}]}, {"smiles": "Cc1ccc(S(=O)(=O)O)cc1.[Na]", "note": "[sodium p-tolulene sulfonate, sodium p-toluene sulfonate]", "values": [{"measurement": "Rate of the antibody reaction with increasing concentrations of additive", "setting": "[2]", "value": "substantially slowed"}]}]}
